Test results: paper PMC2950128, “Protein Evolution by Molecular Tinkering: Diversification of the Nuclear Receptor Superfamily from a Ligand-Dependent Ancestor” (PLoS Biology, 2010)

Molecular target: T1, AqNR1-LBD (Amphimedon queenslandica, UniProt B1A9Z2)
T1 construct: fusion kept for serum incubation), E. coli BL21(DE3) pLysS
Assay: lipid extraction and negative-ion ESI/MS of purified LBD
Type: binding
Settings: co-purified from E. coli (also after complete serum); identified by mass as 18:0, chain isomer not told

T1 sequence (B1A9Z2 entry or part of it): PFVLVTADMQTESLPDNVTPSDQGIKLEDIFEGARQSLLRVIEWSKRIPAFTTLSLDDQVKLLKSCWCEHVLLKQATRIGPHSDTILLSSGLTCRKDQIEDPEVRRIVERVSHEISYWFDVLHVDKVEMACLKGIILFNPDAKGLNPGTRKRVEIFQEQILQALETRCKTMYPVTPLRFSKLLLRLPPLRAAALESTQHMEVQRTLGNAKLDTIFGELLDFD

## CCCCCCCCCCCCCCCCCC(=O)O [18∶0 fatty acid]
  lipid extraction and negative-ion ESI/MS of purified LBD: bound an array of bacterial free fatty acids (FAs)
